Patent US7192943B2, “Cephem compounds” (Astellas Pharma Inc., priority 2003, dated 2007)
In brackets after ≈: the same amount, converted by molar mass.

test system: Pseudomonas aeruginosa FP 1380; test: In vitro antibacterial activity (MIC) by two-fold agar-plate dilution method; format: cell-based; conditions: FP1380; test strain Pseudomonas aeruginosa FP 1380; heart infusion agar, incubation at 37° C. for 20 hours
Method: Now in order to show the utility of the object compound [I], the test data on MIC (minimal inhibitory concentration) of a representative compound of this invention are shown in the following.
In vitro antibacterial activity was determined by the two-fold agar-plate dilution method as described below.
One loopful of an overnight culture of each test strain in Trypticase-soy broth (10^6 viable cells per ml) was streaked on heart infusion agar (HI-agar) containing graded concentrations of representative test compound, and the minimal inhibitory concentration (MIC) was expressed in μg/ml after incubation at 37° C. for 20 hours.

Compound	MIC
Cn1c(N)c(NC(=O)CC(=O)NC(CN)CN)c[n+]1CC1=C(C(=O)[O-])N2C(=O)[C@@H](NC(=O)/C(=N\OC(C)(C)C(=O)O)c3nsc(N)n3)[C@H]2SC1 [Compound (e), 7β-[(Z)-2-(5-amino-1,2,4-thiadiazol-3-yl)-2-(1-carboxy-1-methylethoxyimino)acetamido]-3-{3-amino-4-[(3-{[2-amino-1-(aminomethyl)ethyl]amino}-3-oxopropanoyl)amino]-2-methyl-1-pyrazolio}methyl-3-cephem-4-carboxylate]	1 µg/mL (≈ 1.36 µM)
Cn1c(N)c(NC(=O)N(CCN)CCN)c[n+]1CC1=C(C(=O)O)N2C(=O)[C@@H](NC(=O)/C(=N\OC(C)(C)C(=O)O)c3nsc(N)n3)[C@H]2SC1.O=S(=O)([O-])O [Compound (b), 7β-[(Z)-2-(5-amino-1,2,4-thiadiazol-3-yl)-2-(1-carboxy-1-methylethoxyimino)acetamido]-3-{3-amino-4-({[bis(2-aminoethyl)amino]carbonyl}amino)-2-methyl-1-pyrazolio}methyl-3-cephem-4-carboxylic acid hydrogensulfate]	1 µg/mL
Cn1c(N)c(NC(=O)NC(CN)CN)c[n+]1CC1=C(C(=O)O)N2C(=O)[C@@H](NC(=O)/C(=N\OC(C)(C)C(=O)O)c3nsc(N)n3)[C@H]2SC1.O=S(=O)([O-])O [Compound (d), 7β-[(Z)-2-(5-amino-1,2,4-thiadiazol-3-yl)-2-(1-carboxy-1-methylethoxyimino)acetamido]-3-(3-amino-4-{3-[2-amino-1-(aminomethyl)ethyl]ureido}-2-methyl-1-pyrazolio)methyl-3-cephem-4-carboxylic acid hydrogensulfate]	1 µg/mL
Cn1c(N)c(NC(=O)N(CCN)CCCN)c[n+]1CC1=C(C(=O)[O-])N2C(=O)[C@@H](NC(=O)/C(=N\OC(C)(C)C(=O)O)c3nsc(N)n3)[C@H]2SC1 [Compound (c), 7β-[(Z)-2-(5-amino-1,2,4-thiadiazol-3-yl)-2-(1-carboxy-1-methylethoxyimino)acetamido]-3-[3-amino-4-({[N-(2-aminoethyl)-N-(3-aminopropyl)amino]carbonyl}-amino)-2-methyl-1-pyrazolio]methyl-3-cephem-4-carboxylate]	1 µg/mL (≈ 1.38 µM)
CC(C)(O/N=C(\C(=O)N[C@@H]1C(=O)N2C(C(=O)[O-])=C(C[n+]3ccccc3)CS[C@H]12)c1csc(N)n1)C(=O)O [Ceftazidime, reference compound]	128 µg/mL (≈ 234 µM)
Cn1c(N)c(NC(=O)N(CCN)CCN)c[n+]1CC1=C(C(=O)[O-])N2C(=O)[C@@H](NC(=O)/C(=N\OC(C)(C)C(=O)O)c3nsc(N)n3)[C@H]2SC1 [Compound (a), 7β-[(Z)-2-(5-amino-1,2,4-thiadiazol-3-yl)-2-(1-carboxy-1-methylethoxyimino)acetamido]-3-{3-amino-4-({[bis(2-aminoethyl)amino]carbonyl}amino)-2-methyl-1-pyrazolio}methyl-3-cephem-4-carboxylate]	1 µg/mL (≈ 1.41 µM)
